Patent publication US20080139480A1, “Combination Of (A) N--4-(3- Pyridyl)-2-Pyrimidine-Amine And (B) At Least One Hypusination Inhibitor And The UseThereof” (priority 2003, published 2008)
“Also recorded” adds a separate entry of the source.

Tests used:
Format in all cases: cell-based
[1] = system: Bcr-Abl-negative HL-60 cells; assay: MTT assay, growth inhibition / cellular cytotoxicity; conditions: ciclopirox 0 to 81 μM
Experimental: (§1) K562 cells were obtained from DSMZ (Bielefeld, Germany). HL-60 lines were kindly provided by Dr. Bühring (Tübingen, Germany). Both cell lines are cultured in RPMI 1640 medium (Gibco-BRL, Invitrogen, UK) containing 10% fetal calf serum (FCS) (Biochrom KG, Berlin, Germany). The cells are incubated at 37° C. in a humidified atmosphere with 5% CO2 in air.
(§2) K652 and HL-60 cells are plated into 96-well flat-bottomed microtiter plates (Becton Dickinson, Heidelberg, Germany) at 1.5×10^4 cells/well in 150 μl of their respective media.
(§3) All analyses are performed in triplicates. After 24 and 48 hours, the viable cells in each well are assayed for their ability to transform 3-(4,5-dimethylthiazol-2-yl)-2,5-diphenyltetrazolium bromide (MTT) into a purple formazan (Twentyman et al., Br. J. Haematol. 71, 19-24 (1989), Arnould et al., Anticancer Res. 10, 145-154 (1990)). Therefore, 10 μl of a 10 mg/ml MTT solution is added in each well. After an incubation period of 2 hours at 37° C., the purple formazan is released by adding lysis buffer (15% sodium dodecyl sulfate [SDS] in DMF/H2O 1:1, pH 4.5) and shaking overnight in the dark. The absorbance of the samples is measured on an enzyme-linked immunosorbent assay (ELISA) plate reader (Dynatech MR7000) at 570 nm. […]

[2] = system: Bcr-Abl positive K562 cells; assay: as above; conditions: 24 h, ciclopirox 0 to 81 μM
Experimental: as §1, §2, §3

[3] = system: Bcr-Abl negative HL-60 cells; assay: Apoptosis, flow cytometric evaluation of hypodiploid nuclei; conditions: ciclopirox 0 to 81 μM
Experimental: (§4) K562 and HL-60 (2×10^5 cells per well) are cultured in 24-well tissue plates under the conditions described above.
(§5) Briefly, nuclei are prepared by lysing cells in a hypotonic lysis buffer (1% sodium citrate, 0.1% Trition X-100, 50 μg propidium iodide per ml) and subsequently analyzed by flow cytometry. Nuclei to the left of the 2N peak containing hypodiploid DNA are considered as apoptotic. Flow cytometric analysis are performed on a FACScalibur (Becton Dickinson) using […] analysis software.
(§6) Apoptosis was also measured after 24 h by flow cytometric evaluation of hypodiploid nuclei as described in above Methods.

[4] = system: Bcr-Abl-positive K562 cells; assay: as above; conditions: ciclopirox 0 to 81 μM
Experimental: as §4, §5, §6

For `Cc1cc(C2CCCCC2)n(O)c(=O)c1` [ciclopirox, 6-cyclohexyl-1-hydroxy-4-methyl-2(1H)-pyridinone], the “cell viability, single agent” value [1] was “inhibits cell viability”, the “growth inhibition / cell viability, single agent” value [2] was “inhibits cell viability; also recorded: anti-proliferative effect was detected” and the “induction of apoptosis, single agent” value [3] was “induces apoptosis”. For the same compound, the “induction of apoptosis, single agent” value [4] was “induces apoptosis”.
